From US20020150553A1, “Compositions containing C-terminal polypeptides of angiogenic chemokines and methods of use” (The Regents of the University of California, priority 1999, published 2002)

What was measured:
[1] = Time-dependent release of the 9E3 peptide from methylcellulose pellets; type: physicochemical; conditions: 300 ng 125I-labeled peptide in 0.5% methylcellulose pellet, PBS, 37° C.
Experimental: Samples of 280 μl of saline were removed periodically for scintillation counting and replaced by fresh saline. Error bars represent the standard deviation for 15 samples taken at each time point.
Methylcellulose pellets containing either form of the peptide at different concentrations were placed on mature CAMs [see Martins-Green M, Feugate J E (1998) The 9E3/CEF4 gene product is a chemotactic and angiogenic factor that can initiate the wound healing cascade in vivo. Cytokine 10:522-535]. Because the peptide is much smaller than cCAF itself, it is possible that release from the pellet might be much more rapid than for the entire molecule. Therefore, before performing the experiments on the CAM we determined the kinetics of release of the C-terminal peptide from pellets under reducing conditions for which the peptide will be a monomer and therefore of smallest size.
Five microliters of 0.5% methylcellulose (Fisher) containing 300 ng of ^125I-labeled 9E3 peptide were placed in the bottom of 15 Eppendorf tubes (0.5 ml), allowed to dry and then covered with 300 μl of sterile PBS containing 0.02% sodium azide and incubated at 37° C. […] The label released into the fluid was counted in a scintillation counter to determine if and over what period of time the peptide was released.

[2] = test system: blood vessels of the chorioallantoic membrane (CAM); assay: Angiogenesis assays in the CAM (chorioallantoic membrane); type: in vivo, chicken; conditions: for percent of blood vessels oriented towards the pellet minus percent directed away: cCAF peptide 100-300 ng; for angiogenesis / oriented blood vessel growth after preincubation with antibody: peptide (100-300 ng) preincubated with excess of an antibody prepared against it; for new sprouting of blood vessels of the CAM: 4 days after application
Experimental: (§1) These assays were done as previously described [Martins-Green et al. (1998)]. Briefly, fertilized chicken eggs were incubated for 3 days at 37° C., at which time 2 ml of albumin were withdrawn to drop the embryo and CAM away from the shelf. Windows were made on day 4, the holes covered with transparent tape, and the eggs placed back in the incubator until day 10 when the experiment was performed. Pellets were prepared by mixing the appropriate amount of reduced and non-reduced 9E3 peptides or bFGF with 1% methylcellulose (1:1) and then delivering 5-μl droplets on a bacterial dish and allowing them to dry in a sterile hood for approximately 30 min. This procedure generated small disc-shaped pellets 2 mm in diameter and ˜0.1 mm thick. These pellets containing various concentrations of protein were placed, under sterile conditions, between two large blood vessels of the 10-day-old CAMs. Two or four days later, the pellets and the surrounding area of the CAM were fixed in situ; the CAMs were then removed and examined for the presence of chemotaxis and/or angiogenesis. Angiogenesis was quantified by analysis of blood vessel orientation and/or increase in the number of vessels and sprouts (see below). Negative control pellets were prepared in the same way with 0.5% methylcellulose alone or with the same concentration of BSA as used for the cCAF peptide or with peptide preincubated with an antibody made against it [Martins-Green et al. (1992)].
As previously described, 10-day-old CAMs were used because at this stage of development the CAM close to the embryo is fully developed; the blood vessels in this area have stopped growing and assumed a tree-like pattern with short stubby tertiary branches (FIG. 2A). […] [Martins-Green et al. (1997); Vu M T, Smith C F, Burger P C, Klintworth G K (1985) Methods in laboratory investigation. An evaluation of methods to quantitate the chick chorioallantoic membrane assay in angiogenesis. Lab Invest 4:499-508; Klagsbrun M, D'Amore P A (1991) Regulators or angiogenesis. Annu Rev Physiol 53:217-239; Cockerill G W, Gamble J R, Vadas M A (1995) Angiogenesis: models and modulators. Interntl Rev Cytol 1.59:113-160; and Swerlick R A (1995) Angiogenesis. J Dermatol 22:845-852.]
The CAMs were then analyzed by making measurements of the orientation of the blood vessels relative to the pellet. For each concentration of the C-terminal peptide and for all controls, 6-10 CAMs were measured. Vessels were classified (FIG. 2A) as primary (largest), secondary (branches of primary vessels) and tertiary (all other vessels). […] The measurements were made without prior knowledge of which specimens were controls and which were cCAF. For secondary vessels; we looked for deviations in their orientations. For tertiary vessels, each vessel was approximated by a vector pointing in its growth direction. Each vector was resolved into components directed radially and tangentially with respect to the pellet; the definition of toward or away was determined from the radial component of the vector. For graphical presentation of the data, the percent of blood vessels growing toward the pellet was determined for secondary and tertiary vessels (FIG. 5).
Quantification of blood vessel sprouting was performed as described previously [Martins-Green et al. (1998)]. Briefly, a sprout was defined as a very small blood vessel having a length of one third or less that of the tertiary branches of the normal CAM. Sprouts thus defined were counted in the areas of the CAMs with pellets containing 1000 ng of C-terminal peptide. For CAMs treated with 1000 ng/pellet of C-terminal peptide, we counted sprouts on 90 mm total of 21 individual blood vessel segments from 6 different CAMs. For the BSA controls we counted sprouts on 123 mm of 24 segments of blood vessels.

leukocytes = assay: Chemotaxis for leukocytes and tissue changes in cross sections of treated CAMs; type: in vivo, chicken; conditions: for chemotaxis for leukocytes: 100 ng
Experimental: The cells inside the large blood vessel are erythrocytes (these chicken cells are nucleated). […] (C) Natural CAM showing sparse cells and a single blood vessel. Scale bars=100 μm.
as §1
Although the general structure of treated and untreated CAMs is the same, some differences were seen.

[3] = test system: blood vessels of wing muscle tissue; assay: Angiogenic assays in 2-week-old chicks (peptide deposited under the skin of the wing); type: in vivo, chick; conditions: 1 μg/10 μl under the skin of the wing on two consecutive days, four days after first dose
From the text: Hematoxylin and eosin stained cross sections of wing muscle tissue showing organization of the muscle fibers. (A) Very few blood vessels (arrowheads) can be seen amongst the untreated muscle fibers. A large nerve bundle can be seen (black dot) associated with three small blood vessels. (B) Similar section taken from the wing of a bird that has been treated with the C-terminus peptide. Note the presence of numerous small blood vessels (arrowheads) amongst the muscle fibers. (C) Similar section from a bird treated with only buffer vehicle for the peptide. The number of blood vessels (arrowheads) is similar to that of the control. Scale bar=50 μm.
To further test the angiogenic potential of the C-terminal peptide, 1 μg of the peptide in 10 μl of water was deposited under the skin of the underside of the wing of 2-week-old chicks on two consecutive days, and the tissues prepared for histology on the fourth day.
The C-terminal peptide was deposited under the skin of the under wing of […] chicks using a procedure described previously [Martins-Green M, Boudreau N, Bissell M J (1994) Inflammation is responsible for the development of wound tumors in RSV-infected newly-hatched chicks. Cancer Res 54:4334-4341]. Two samples of 1 μg/10 μl each, were applied on two consecutive days followed by a waiting period of 3 days. […]

[4] = supernatant of normal cultures of CEFs; cited from earlier work
[5] = higher doses, 600-1000 ng/pellet
[6] = CAM cross sections two days after application of pellets

C-terminal peptide: last 28 aas of the C-terminus of cCAF (residues 76 to 103 of SEQ ID NO:1), with cysteine No. 4 as N-terminal most aa (CLDPTAPWVQLIVKALMAKAQLNSDAPL; Gallusgallus)
duration of slow, prolonged release from the pellet [1]: up to 48 h
period in which the majority of the peptide was released from the pellet ([1]; reducing conditions (monomer)): ≤ 6 h
number of new sprouts relative to CAMs treated with BSA ([2]; 1000 ng/pellet): about 10 times
blood vessel growth towards the pellet ([2]; 100-300 ng per pellet): stimulated the blood vessels to grow towards the pellet
tortuosity and sprouting effects after preincubation with antibody ([2]; 600-1000 ng/pellet, peptide preincubated with excess antibody directed against it): eliminated
percent of blood vessels oriented towards the pellet minus percent directed away ([2]; bFGF 500 ng): marked blood vessel orientation toward the pellet
reorientation of blood vessels [2, 5]: greatly decreased
sprouting of blood vessels [2, 5]: abundant sprouting
tortuosity of blood vessels [2, 5]: marked tortuosity
most effective doses (significant increase in angiogenic activity: tortuosity and sprouting) ([2]; localized administration in CAM assay): > 450 ng
percentage of CAMs showing reorientation and/or growth of blood vessels towards the pellet ([2]; non-reduced peptide): 94%
percentage of CAMs showing reorientation and/or growth of blood vessels towards the pellet ([2]; non-reduced peptide, listed as cCAF peptide): ~100%
angiogenesis / oriented blood vessel growth after preincubation with antibody [2]: the effect was eliminated
angiogenesis / oriented blood vessel growth after preincubation with antibody ([2]; listed as cCAF peptide): no angiogenesis was seen
percentage of CAMs showing reorientation and/or growth of blood vessels towards the pellet ([2]; peptide under reducing conditions): 96%
percentage of CAMs showing reorientation and/or growth of blood vessels towards the pellet ([2]; peptide under reducing conditions, listed as cCAF peptide): ~100%
most effective dose for oriented growth of secondary blood vessels ([2]; per pellet, secondary vessels): ~100 ng
most effective dose for oriented growth of tertiary blood vessels ([2]; per pellet, tertiary vessels): ~300 ng
hyperproliferation of the ectoderm of the CAM (leukocytes; [6]): slightly hyperproliferated
chemotaxis for leukocytes (leukocytes; [6]): no chemotaxis for leukocytes
leukocyte chemotaxis or granulation-like tissue formation (leukocytes; in vivo, CAM and chick wing): no evidence was found
small blood vessels in muscle tissue underlying the site of application versus vehicle and normal wing [3]: many more small blood vessels

IL-8: interleukin 8, ELR-CXC chemokine (SEQ ID NO:3)
new sprouting of blood vessels of the CAM ([2]; 500 ng per pellet): extensive new sprouting

bFGF: Basic fibroblast growth factor, positive control in the CAM assay [reference compound]
percent of blood vessels oriented towards the pellet minus percent directed away ([2]; bFGF 500 ng): marked blood vessel orientation toward the pellet
percentage of CAMs showing reorientation and/or growth of blood vessels towards the pellet ([2]; positive control, 500 ng/pellet): 100%
percent of secondary vessels deviated toward the pellet ([2]; secondary vessels, bFGF 500 ng): over 90%
percent of tertiary vessels pointing in the direction of the pellet ([2]; tertiary vessels, bFGF 500 ng): less than 80%

B1: cCAF: Chicken chemotactic and angiogenic factor, product of the 9E3 gene, 9 kDa CXC chemokine (SEQ ID NO:1) (protein)
chain: MNGKLGAVLALLLVSAALSQGRTLVKMGNELRCQCISTHSKFIHPKSIQDVKLTPSGPHCKNVEIIATLKDGREVCLDPTAPWVQLIVKALMAKAQLNSDAPL
modifications: Gallusgallus
new sprouting of blood vessels of the CAM ([2]; 450 ng per pellet): extensive new sprouting
chemotaxis for leukocytes (leukocytes; [6]): chemotactic for monocyte/macrophages and lymphocytes
period for which the 9 kDa form is stable [4]: 24 h
